Data as given in US20220257774A1, “AROMATIC AMINE AR AHD BET TARGETING PROTEIN DEGRADATION CHIMERA COMPOUND AND USE” (HINOVA PHARMACEUTICALS INC., priority 2019, published 2022).
Where two headings read alike, the source gives them in different places.

Legend:
Assay type in all cases: cell-based
[1] = test system: LNCaP/AR cells; test: Inhibition of the proliferation of LNCap/AR cells (CCK-8); settings: LNCaP/AR cells, 6 days culture, CCK-8, read-out: LNCap/AR IC50
Summary of the method: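 Proliferation was read by CCK-8 (OD 450 nm, 1 h) after six days of compound exposure. Cells were seeded at 1000 per well overnight, then dosed in duplicate over nine 3-fold steps with a top final concentration of 10 μM in 0.1% DMSO; IC50 was fitted from inhibition curves.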

[2] = test system: 22RV1 cells; test: Inhibition of the proliferation of drug-resistant prostate cancer cell 22RV1 (CCK-8); settings: 22RV1 cells (enzalutamide-resistant), same method
Summary of the method: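 22RV1 cells, 1000/well in RPMI1640 with 10% FBS, treated in duplicate with 9-point 3-fold dilutions from 10 μM (0.1% DMSO final). After 6 days at 37 °C, CCK-8 added for 1 h and OD450 read. IC50 from dose-response inhibition fit.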

[3] = test system: Androgen receptor (AR); test: Down-regulation/degradation of AR determined by Western blot in CWR22RV1 cells; settings: concentration 100 nM, 24 h
Method: (§1) The Down-Regulation on the Protein Expression of Androgen Receptors AR and Brd4 Determined by Western Blot CWR22RV1 cells (National Collection of Authenticated Cell Cultures. TCHu100) FBS (Gibco, Cat. No. 10099-141) 0.01M PBS (Biosharp. Cat. No. 162262) RIPM1640 (Hyclone, Cat. No. 308090.01) Penicillin-Streptomycin (Hyclone. Cat. No. SV30010) DMSO (Sigma. Cat. No. D5879) Centrifuge tube, 15 ml (Excell Bio. Cat. No. CS015-0001) Cell culture plate (Excell Bio. Cat. No. CS016-0128) 6-well cell culture cluster (Corning, Cat. No. 3516) RIPA lysate buffer (Beyotime, Cat. No. P0013B) Protein loading buffer (Beyotime, Cat. No. P0015L) CA protein assay kit (Beyotime, Cat. No. P0012) SDS-PAGE gel preparation kit (Chengdu Baihe Technology Co., Ltd. Cat. No. PG112) Anti-β-tubulin mouse mAb (Zen Bioscience, Cat. No. 200608) Androgen Receptor ([…]) XP Rabbit mAb (CST. Cat. No. 5153) Anti-cMyc(D3N8F) Rabbit mAb (CST. Cat. No. 13987) Anti-BRD4(E2A7X) rabbit mAb (CST, Cat. No. 13440) Peroxidase Affinipure(HRP) Goat Anti-Mouse IgG (Zen Bioscience, Cat. No. 511103) Peroxidase Affinipure(HRP) Goat Anti-Rabbit IgG (Zen Bioscience, Cat. No. 511203) TBST (Biosharp. Cat. No. B[…]) ECL chemiluminescence kit (Beyotime, Cat. No. […]1 cells were subcultured in cell culture media, and then the cells in good growth condition were seeded in a 6-well plate at 2 ml/well (1×10^6 cells/well), and cultured overnight in a 37° C., 5% CO2 cell incubator. 2) The drug was prepared as a 10 mM stock solution with dimethyl sulfoxide (DMSO). […] The plate was gently tapped to thoroughly mix. In addition, the experiment included negative control wells (containing equal amount of DMSO) and positive control wells. 3) After culturing 24 hi, the cells were lysed with RIPA cell lysate, and the protein was extracted. […] The first antibody (Androgen Receptor ([…]) XP Rabbit mAb. Anti-cMyc(D3N8F) Rabbit mAb, Anti-BRD4(E2A7X) rabbit mAb and Anti-β-Tubulin Mouse mAb) was added and incubated overnight at 4° C. The membrane was rinsed with TBST solution three times, 10 min for each time. The secondary antibody (horseradish peroxidase labeled goat anti mouse IgG) was added and incubated at room temperature for 2 h, and then the membrane was washed with TBST solution three times, 10 m for each time. Finally. ECL chemiluminescence solution was added, and then photos were taken with automatic chemiluminescence instrument to collect pictures for analysis.

[4] = target: T1, BRD4 (Homo sapiens, UniProt O60885); test: Down-regulation/degradation of BRD4 determined by Western blot in CWR22RV1 cells; settings: concentration 100 nM, 24 h
T1 construct: CWR22RV1 cells were subcultured in cell culture media; endogenous in cells; host or cells: CWR22RV1 cells
Method: as §1

IC50 ([1]; 144 h)	IC50 ([2]; Homo sapiens)	IC50 [1]	IC50 [2]	Compound	AR (% degradation) [3]	BRD4 (% degradation) [4]
501 to 2000 nM	501 to 2000 nM	–	–	Cc1ccc(-c2c(C)noc2C)cc1N(CCOC1(C)CN(c2cc3c(cc2F)C(=O)N(C2CCC(=O)NC2=O)C3)C1)c1ccc(C2(C#N)CC2)cc1 (centres unmarked) [Compound 113, 1-(4-((5-(3,5-Dimethylisoxazol-4-yl)-2-methylphenyl)(2-((1-(2-(2,6-dioxopiperidin-3-yl)-6-fluoro-1-oxoisoindolin-5-yl)-3-methylazetidin-3-yl)oxy)ethyl)amino)phenyl)cyclopropanecarbonitrile]	D (<20% of the target protein was degraded)	C (49%-20% of the target protein was degraded)
101 to 500 nM	101 to 500 nM	–	–	Cc1ccc(-c2c(C)noc2C)cc1N(CC1CCN(c2cc3c(cc2F)CN(C2CCC(=O)NC2=O)C3=O)CC1)c1ccc(C2(C#N)CC2)cc1 (centres unmarked) [Compound 127, 1-(4-((5-(3,5-dimethylisoxazol-4-yl)-2-methylphenyl)((1-(2-(2,6-dioxopiperidin-3-yl)-6-fluoro-3-oxoisoindolin-5-yl)piperidin-4-yl)methyl)amino)phenyl)cyclopropane-1-nitrile]	D (<20% of the target protein was degraded)	B (79%-50% of the target protein was degraded)
–	–	< 100 nM	< 100 nM	Cc1ccc(-c2c(C)noc2C)cc1N(C[C@H]1CC[C@H](CNc2cc3c(cc2F)C(=O)N(C2CCC(=O)NC2=O)C3=O)CC1)c1ccc(C#N)c(Cl)c1 (some centres unmarked) [Compound 131]	C (49%-20% of the target protein was degraded)	A (>80% of the target protein was degraded)
101 to 500 nM	< 100 nM	–	–	Cc1ccc(-c2c(C)noc2C)cc1N(CCC1CN(c2cc3c(cc2F)C(=O)N(C2CCC(=O)NC2=O)C3=O)C1)c1ccc(C2(C#N)CC2)cc1 (centres unmarked) [Compound 129, 1-(4-((5-(3,5-Dimethylisoxazol-4-yl)-2-methylphenyl)(2-(1-(2-(2,6-dioxopiperidin-3-yl)-6-fluoro-1,3-dioxoisoindolin-5-yl)azetidin-3-yl)ethyl)amino)phenyl)cyclopropane-1-carbonitrile]	C (49%-20% of the target protein was degraded)	B (79%-50% of the target protein was degraded)
501 to 2000 nM	101 to 500 nM	–	–	Cc1ccc(-c2c(C)noc2C)cc1N(CCCNc1ccc2c(c1)C(=O)N(C1CCC(=O)NC1=O)C2=O)c1ccc(C2(C#N)CC2)cc1 (centres unmarked) [Compound 172, 1-(4-((5-(3,5-Dimethylisoxazol-4-yl)-2-methylphenyl)(3-((2-(2,6-dioxopiperidin-3-yl)-1,3-dioxoisoindolin-5-yl)amino)propyl)amino)phenyl)cyclopropane-1-nitrile]	D (<20% of the target protein was degraded)	D (<20% of the target protein was degraded)
< 100 nM	< 100 nM	–	–	Cc1ccc(-c2c(C)noc2C)cc1N(CC(C)OC1CN(c2ccc3c(c2)CN(C2CCC(=O)NC2=O)C3=O)C1)c1ccc(C2(C#N)CC2)cc1 (centres unmarked) [Compound 180, 1-(4-((5-(3,5-dimethylisoxazol-4-yl)-2-methylphenyl)(2-((1-(2-(2,6-dioxopiperidin-3-yl)-1-oxoisoindolin-5-yl)azacyclobutane-3-yl)oxy)propyl)amino)phenyl)cyclopropane-1-nitrile]	D (<20% of the target protein was degraded)	A (>80% of the target protein was degraded)
101 to 500 nM	< 100 nM	–	–	Cc1ccc(-c2c(C)noc2C)cc1N(CCCOC1CN(c2cc3c(cc2F)C(=O)N(C2CCC(=O)NC2=O)C3)C1)c1ccc(C2(C#N)CC2)cc1 (centres unmarked) [Compound 124, 1-(4-((5-(3,5-dimethylisoxazol-4-yl)-2-methylphenyl)(3-((1-(2-(2,6-dioxopiperidin-3-yl)-6-fluoro-1-oxoisoindolin-5-yl)azetidin-3-yl)oxy)propyl)amino)phenyl)cyclopropane-1-nitrile]	B (79%-50% of the target protein was degraded)	B (79%-50% of the target protein was degraded)
101 to 500 nM	< 100 nM	–	–	Cc1ccc(-c2c(C)noc2C)cc1N(C[C@H]1CC[C@H](CNc2cc3c(cc2F)C(=O)N(C2CCC(=O)NC2=O)C3)CC1)c1ccc(C2(C#N)CC2)cc1 (some centres unmarked) [Compound 169]	C (49%-20% of the target protein was degraded)	B (79%-50% of the target protein was degraded)
< 100 nM	< 100 nM	–	–	Cc1ccc(-c2c(C)noc2C)cc1N(CC(C)OC1CN(c2cc3c(cc2F)C(=O)N(C2CCC(=O)NC2=O)C3)C1)c1ccc(C2(C#N)CC2)cc1 (centres unmarked) [Compound 178, 1-(4-((5-(3,5-dimethylisoxazol-4-yl)-2-methylphenyl)(2-((1-(2-(2,6-dioxopiperidin-3-yl)-6-fluoro-1-oxoisoindolin-5-yl)azetidin-3-yl)oxy)propyl)amino)phenyl)cyclopropane-1-nitrile]	B (79%-50% of the target protein was degraded)	A (>80% of the target protein was degraded)
501 to 2000 nM	< 100 nM	–	–	Cc1ccc(-c2c(C)noc2C)cc1N(CC(C)OC1CN(c2ccc3c(c2)C(=O)N(C2CCC(=O)NC2=O)C3=O)C1)c1ccc(C2(C#N)CC2)cc1 (centres unmarked) [Compound 174, 1-(4-((5-(3,5-Dimethylisoxazol-4-yl)-2-methylphenyl)(2-((1-(2-(2,6-dioxopiperidin-3-yl)-1,3-dioxoisoindolin-5-yl)azacyclobutane-3-yl)oxy)propyl)amino)phenyl)cyclopropane-1-nitrile]	D (<20% of the target protein was degraded)	D (<20% of the target protein was degraded)
501 to 2000 nM	< 100 nM	–	–	Cc1ccc(-c2c(C)noc2C)cc1N(CC(C)OC1CCN(c2ccc3c(c2)C(=O)N(C2CCC(=O)NC2=O)C3=O)CC1)c1ccc(C2(C#N)CC2)cc1 (centres unmarked) [Compound 106]	C (49%-20% of the target protein was degraded)	B (79%-50% of the target protein was degraded)
501 to 2000 nM	101 to 500 nM	–	–	Cc1ccc(-c2c(C)noc2C)cc1N(CC1CCN(c2cc3c(cc2F)C(=O)N(C2CCC(=O)NC2=O)C3)CC1)c1ccc(C2(C#N)CC2)cc1 (centres unmarked) [Compound 128, 1-(4-((5-(3,5-dimethylisoxazol-4-yl)-2-methylphenyl)((1-(2-(2,6-dioxopiperidin-3-yl)-6-fluoro-1-oxoisoindolin-5-yl)piperidin-4-yl)methyl)amino)phenyl)cyclopropane-1-nitrile]	D (<20% of the target protein was degraded)	C (49%-20% of the target protein was degraded)
501 to 2000 nM	< 100 nM	–	–	Cc1ccc(-c2c(C)noc2C)cc1N(CC1CCN(CCNc2ccc3c(c2)C(=O)N(C2CCC(=O)NC2=O)C3=O)CC1)c1ccc(C2(C#N)CC2)cc1 (centres unmarked) [Compound 117]	D (<20% of the target protein was degraded)	B (79%-50% of the target protein was degraded)
–	–	< 100 nM	< 100 nM	Cc1ccc(-c2c(C)noc2C)cc1N(C[C@H]1CC[C@H](CNc2cc3c(cc2F)C(=O)N(C2CCC(=O)NC2=O)C3)CC1)c1ccc(C#N)c(Cl)c1 (some centres unmarked) [Compound 135]	C (49%-20% of the target protein was degraded)	A (>80% of the target protein was degraded)
